We go through three compounds from PubChem BioAssay AID1259407 (Chemical Carcinogenesis Research Information System (CCRIS), 2018).

The source made the active and inactive calls. The rule behind the calls is not given here.

The test system of the data set is CCRIS mutagenicity, Ames/micronucleus/aberration tests. The data set is described as follows: CCRIS mutagenicity studies.
[1] abbreviates: Test System: AMES SALMONELLA TYPHIMURIUM, Strain/Indicator: TA1537, Metabolic Activation: NONE, Method: PREINCUBATION

In the case of `COC[CH2][Hg][Cl]`, the mutagenic call reads like this: (Test System: AMES SALMONELLA TYPHIMURIUM, Strain/Indicator: TA97, Metabolic Activation: HAMSTER, LIVER, S-9, AROCLOR 1254 (30%), Method: PREINCUBATION) “inactive; negative”; (Test System: AMES SALMONELLA TYPHIMURIUM, Strain/Indicator: TA97, Metabolic Activation: NONE, Method: PREINCUBATION) “inactive; negative”; (Test System: AMES SALMONELLA TYPHIMURIUM, Strain/Indicator: TA97, Metabolic Activation: RAT, LIVER, S-9, AROCLOR 1254 (30%), Method: PREINCUBATION) “inactive; negative”; (Test System: AMES SALMONELLA TYPHIMURIUM, Strain/Indicator: TA98, Metabolic Activation: HAMSTER, LIVER, S-9, AROCLOR 1254 (10%), Method: PREINCUBATION) “inactive; negative”; (Test System: AMES SALMONELLA TYPHIMURIUM, Strain/Indicator: TA98, Metabolic Activation: HAMSTER, LIVER, S-9, AROCLOR 1254 (30%), Method: PREINCUBATION) “inactive; negative”; (Test System: AMES SALMONELLA TYPHIMURIUM, Strain/Indicator: TA98, Metabolic Activation: NONE, Method: PREINCUBATION) “inactive; negative”. The mutagenic call runs as follows: (Test System: AMES SALMONELLA TYPHIMURIUM, Strain/Indicator: TA98, Metabolic Activation: RAT, LIVER, S-9, AROCLOR 1254 (10%), Method: PREINCUBATION) “inactive; negative”; (Test System: AMES SALMONELLA TYPHIMURIUM, Strain/Indicator: TA98, Metabolic Activation: RAT, LIVER, S-9, AROCLOR 1254 (30%), Method: PREINCUBATION) “inactive; negative”; (Test System: AMES SALMONELLA TYPHIMURIUM, Strain/Indicator: TA100, Metabolic Activation: HAMSTER, LIVER, S-9, AROCLOR 1254 (10%), Method: PREINCUBATION) “inactive; negative”; (Test System: AMES SALMONELLA TYPHIMURIUM, Strain/Indicator: TA100, Metabolic Activation: HAMSTER, LIVER, S-9, AROCLOR 1254 (30%), Method: PREINCUBATION) “inactive; negative”; (Test System: AMES SALMONELLA TYPHIMURIUM, Strain/Indicator: TA100, Metabolic Activation: NONE, Method: PREINCUBATION) “inactive; negative”; (Test System: AMES SALMONELLA TYPHIMURIUM, Strain/Indicator: TA100, Metabolic Activation: RAT, LIVER, S-9, AROCLOR 1254 (10%), Method: PREINCUBATION) “inactive; negative”. Also, the mutagenic call was “inactive; negative” (Test System: AMES SALMONELLA TYPHIMURIUM, Strain/Indicator: TA100, Metabolic Activation: RAT, LIVER, S-9, AROCLOR 1254 (30%), Method: PREINCUBATION); “inactive; negative” (Test System: AMES SALMONELLA TYPHIMURIUM, Strain/Indicator: TA1535, Metabolic Activation: HAMSTER, LIVER, S-9, AROCLOR 1254 (10%), Method: PREINCUBATION); “inactive; negative” (Test System: AMES SALMONELLA TYPHIMURIUM, Strain/Indicator: TA1535, Metabolic Activation: HAMSTER, LIVER, S-9, AROCLOR 1254 (30%), Method: PREINCUBATION); “inactive; negative” (Test System: AMES SALMONELLA TYPHIMURIUM, Strain/Indicator: TA1535, Metabolic Activation: NONE, Method: PREINCUBATION); “inactive; negative” (Test System: AMES SALMONELLA TYPHIMURIUM, Strain/Indicator: TA1535, Metabolic Activation: RAT, LIVER, S-9, AROCLOR 1254 (10%), Method: PREINCUBATION); “inactive; negative” (Test System: AMES SALMONELLA TYPHIMURIUM, Strain/Indicator: TA1535, Metabolic Activation: RAT, LIVER, S-9, AROCLOR 1254 (30%), Method: PREINCUBATION). For the same compound, the mutagenic call is, setting by setting: (Test System: AMES SALMONELLA TYPHIMURIUM, Strain/Indicator: TA1537, Metabolic Activation: HAMSTER, LIVER, S-9, AROCLOR 1254 (30%), Method: PREINCUBATION) “inactive; negative”; under setting [1], “inactive; negative”; (Test System: AMES SALMONELLA TYPHIMURIUM, Strain/Indicator: TA1537, Metabolic Activation: RAT, LIVER, S-9, AROCLOR 1254 (30%), Method: PREINCUBATION) “inactive; negative”.

Regarding `Nc1c2ccccc2nc2ccc([N+](=O)[O-])cc12`, the mutagenic call by setting is: (Test System: AMES SALMONELLA TYPHIMURIUM, Strain/Indicator: TA1537, Metabolic Activation: NONE) “active; positive”; under setting [1], “active; positive”.

In the case of `O=C1C(=O)c2cccc3cccc1c23`, the mutagenic call is “inactive; negative” (Test System: AMES SALMONELLA TYPHIMURIUM, Strain/Indicator: TA98, Metabolic Activation: HAMSTER, LIVER, S-9, AROCLOR 1254, Method: STANDARD PLATE); “active; positive” (Test System: AMES SALMONELLA TYPHIMURIUM, Strain/Indicator: TA98, Metabolic Activation: NONE, Method: STANDARD PLATE); “active; positive” (Test System: AMES SALMONELLA TYPHIMURIUM, Strain/Indicator: TA98, Metabolic Activation: RAT, LIVER, S-9, AROCLOR 1254, Method: STANDARD PLATE); “active; positive” (Test System: AMES SALMONELLA TYPHIMURIUM, Strain/Indicator: TA100, Metabolic Activation: HAMSTER, LIVER, S-9, AROCLOR 1254, Method: STANDARD PLATE); “inactive; negative” (Test System: AMES SALMONELLA TYPHIMURIUM, Strain/Indicator: TA100, Metabolic Activation: NONE, Method: STANDARD PLATE); “inactive; negative” (Test System: AMES SALMONELLA TYPHIMURIUM, Strain/Indicator: TA100, Metabolic Activation: RAT, LIVER, S-9, AROCLOR 1254, Method: STANDARD PLATE). For the same compound, the mutagenic call by setting is: (Test System: MOUSE LYMPHOMA, Strain/Indicator: L5178Y (TK+/TK-), Metabolic Activation: NONE, Method: SUSPENSION/PLATE) “active; positive. reevaluation of results: equivocal”; (Test System: MOUSE LYMPHOMA, Strain/Indicator: L5178Y (TK+/TK-), Metabolic Activation: RAT, LIVER, S-9, AROCLOR 1254, Method: SUSPENSION/PLATE) “active; positive. reevaluation of results: equivocal”.
